Source: patent US11186589B2, “Cyanoindoline derivatives as NIK inhibitors” (Janssen Pharmaceutica NV, priority 2016, dated 2021)

These molecules were tested against NIK/MAP3K14 (Homo sapiens (Human), UniProt Q99558) (assay: Inhibition of auto-phosphorylation of recombinant human NF-kappaB-inducing kinase (NIK/MAP3K14) activity (AlphaScreen)). Settings: averaged values over all measurements on all batches, 25 microM ATP.
Assay type: biochemical
Protocol: Inhibition of Auto-Phosphorylation of Recombinant Human NF-kappaB-Inducing Kinase ([…]) Activity (AlphaScreen®)
NIK/MAP3K14 auto-phosphorylation activity was measured using the AlphaScreen® (αscreen) format (Perkin Elmer). All compounds tested were dissolved in dimethyl sulfoxide (DMSO) and further dilutions were made in assay buffer. Final DMSO concentration was […] in assays. Assay buffer was 50 mM Tris pH 7.5 containing 1 mM EGTA (ethylene glycol tetraacetic acid), 1 mM DTT (dithiothreitol), 0.1 mM Na3VO4, 5 mM MgCl2, 0.01% Tween® 20. Assays were carried out in 384 well Alphaplates (Perkin Elmer). Incubations consisted of compound, 25 microM Adenosine-5′-triphosphate (ATP), and 0.2 nM NIK/MAP3K14. Incubations were initiated by addition of GST-tagged NIK/MAP3K14 enzyme, carried out for 1 h at 25° C. and terminated by addition of stop buffer containing anti-phospho-[…] Ser176/180 antibody. Protein A Acceptor and Glutathione-Donor beads were added before reading using an EnVision® Multilabel Plate Reader (Perkin Elmer). Signal obtained in the wells containing blank samples was subtracted from all other wells and IC50's were determined by fitting a sigmoidal curve to % inhibition of control versus Log10 compound concentration.

Chain of NIK/MAP3K14 (Q99558 whole entry): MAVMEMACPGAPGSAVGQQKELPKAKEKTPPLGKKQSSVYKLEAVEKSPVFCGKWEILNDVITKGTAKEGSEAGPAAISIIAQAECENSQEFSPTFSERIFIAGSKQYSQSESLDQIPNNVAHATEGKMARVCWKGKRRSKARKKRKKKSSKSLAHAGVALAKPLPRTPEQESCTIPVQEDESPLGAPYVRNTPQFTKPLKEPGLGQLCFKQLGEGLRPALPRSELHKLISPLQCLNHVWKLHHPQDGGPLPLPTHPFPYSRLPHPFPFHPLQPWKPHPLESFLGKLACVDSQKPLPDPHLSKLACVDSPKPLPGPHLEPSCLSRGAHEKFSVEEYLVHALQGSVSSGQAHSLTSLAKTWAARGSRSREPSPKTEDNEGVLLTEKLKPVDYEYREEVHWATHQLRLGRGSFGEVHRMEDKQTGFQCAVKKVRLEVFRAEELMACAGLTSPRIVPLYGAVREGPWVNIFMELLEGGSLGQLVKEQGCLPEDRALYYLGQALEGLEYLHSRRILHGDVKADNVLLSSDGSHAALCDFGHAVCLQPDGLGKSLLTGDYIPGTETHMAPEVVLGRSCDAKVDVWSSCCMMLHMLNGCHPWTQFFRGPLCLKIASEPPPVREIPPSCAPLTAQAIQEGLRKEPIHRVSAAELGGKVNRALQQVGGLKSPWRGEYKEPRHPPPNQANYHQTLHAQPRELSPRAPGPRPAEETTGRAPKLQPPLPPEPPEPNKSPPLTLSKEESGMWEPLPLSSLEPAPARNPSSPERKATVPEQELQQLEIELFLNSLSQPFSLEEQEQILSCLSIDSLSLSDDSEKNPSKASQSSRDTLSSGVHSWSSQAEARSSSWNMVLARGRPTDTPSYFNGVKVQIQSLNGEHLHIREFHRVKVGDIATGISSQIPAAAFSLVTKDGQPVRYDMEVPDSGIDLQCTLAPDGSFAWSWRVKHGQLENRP

Compound	IC50 [nM]
CC1(CO)CNc2c(C#N)cc(-c3ccnc(Nc4ccc5c(c4)CC(CO)OC5)n3)cc21 (single isomer, unassigned) [Compound 8]	2
COCCCc1cc2c(cc1Nc1nccc(-c3cc(C#N)c4c(c3)[C@@](C)(CO)CN4)n1)CCN(C)CC2 [Compound 20]	20.4
CC1(CO)CNc2c(C#N)cc(-c3ccnc(Nc4cc(Cl)cc5c4ccn5CCCN4CCOCC4)n3)cc21 (stereo not drawn) [Compound 5c]	12
CC(=O)N1CCc2c(C)c(Nc3nccc(-c4cc(C#N)c5c(c4)C(C)(CO)CN5)n3)cc(Cl)c21 (stereo not drawn) [Compound 9]	2
CC1(CO)CNc2c(C#N)cc(-c3ccnc(Nc4cc(Cl)cc5c4CCN5)n3)cc21 (stereo not drawn) [Compound 10]	4.9
CN(C)C1COc2c(cc(Cl)cc2Nc2nccc(-c3cc(C#N)c4c(c3)[C@@](C)(CO)CN4)n2)C1 (stereo partly drawn) [Compound 17]	3.3
CC1(CO)CNc2c(C#N)cc(-c3ccnc(Nc4cc(Cl)cc5c4ccn5CCN4CCOCC4)n3)cc21 (stereo not drawn) [Compound 4c]	9.6
CC1(CO)CNc2c(C#N)cc(-c3ccnc(Nc4cc(Cl)cc5c4OCCC5)n3)cc21 (stereo not drawn) [Compound 4]	26.9
CN(C)C(=O)C1COc2c(cc(Cl)cc2Nc2nccc(-c3cc(C#N)c4c(c3)[C@@](C)(CO)CN4)n2)C1 (stereo partly drawn) [Compound 11]	9.1
CC1(CO)CNc2c(C#N)cc(-c3ccnc(Nc4ccc5c(c4)CCCO5)n3)cc21 (stereo not drawn) [Compound 1]	5.9
CC1OCCn2nc(Nc3nccc(-c4cc(C#N)c5c(c4)C(C)(CO)CN5)n3)cc21 (stereo not drawn) [Compound 6b]	5.9
Cn1nc2c(c1Nc1nccc(-c3cc(C#N)c4c(c3)C(C)(CO)CN4)n1)CCC2 (stereo not drawn) [Compound 4b]	8.5
CC1(CO)CNc2c(C#N)cc(-c3ccnc(Nc4cnc5c(c4)COCC5)n3)cc21 (stereo not drawn) [Compound 45]	2.7

The next lines start with the values.

IC50 [nM]	Compound
38	CC1(C)CNc2c(C#N)cc(-c3ccnc(Nc4cc(F)cc5[nH]ccc45)n3)cc21 [Compound 8c]
4.3	CNC(=O)CCn1ccc2c(Nc3nccc(-c4cc(C#N)c5c(c4)C(C)(CO)CN5)n3)cc(Cl)cc21 (stereo not drawn) [Compound 11c]
11.8	CC1(CO)CNc2c(C#N)cc(-c3ccnc(Nc4cc5n(n4)CCOC5)n3)cc21 (stereo not drawn) [Compound 7b]
9.6	CC1(C)Cn2nc(Nc3nccc(-c4cc(C#N)c5c(c4)C(C)(CO)CN5)n3)cc2CO1 (stereo not drawn) [Compound 10b]
39.8	COCCn1nc2c(c1Nc1nccc(-c3cc(C#N)c4c(c3)[C@@](C)(CO)CN4)n1)CCC2 [Compound 11b]
5.6	COCCn1ccc2cc(Nc3nccc(-c4cc(C#N)c5c(c4)[C@@](C)(CO)CN5)n3)c(OC)nc21 [Compound 14c]

What follows are molecules tested on JJN-3 cells (assay: Antiproliferative activity on JJN-3 (NIK translocated) multiple myeloma cells (CellTiter-Glo)). Settings: Homo sapiens, JJN-3, 96 h, JJN-3 (NIK translocated) cells, 96 hr treatment, averaged values, read-out: JJN-3 Proliferation inhibition (IC50 (nM)).
Assay type: cell-based, human
Protocol: (§1) Determination of Antiproliferative Activity on JJN-3 (NIK Translocated) and KMS12-BM (NIK WT) Multiple Myeloma Cells
(§2) All compounds tested were dissolved in DMSO and further dilutions were made in culture medium. Final DMSO concentration was 0.3% (v/v) in cell proliferation assays. Viability was assessed using CellTiter-Glo cell viability assay kit (Promega). The human JJN-3 and KMS12-BM cells (DSMZ) were cultured in RPMI 1640 medium supplemented with 2 mM L-glutamine, and 10% fetal calf serum (PAA). Cells were routinely kept as suspension cells at 37° C. in a humidified 5% CO2 atmosphere. Cells were passaged at a seeding density of 0.2×10^6/ml twice a week. Cells were seeded in black tissue culture treated 96-well plates (Perkin Elmer). Densities used for plating ranged from 15000 (JJN3) to 20000 (KMS12BM) cells per well in a total volume of […]. Drugs and/or solvents were added (15 μl) to a final volume of 150 μl. Following 96 hr of treatment, plates were removed from the incubator and allowed to equilibrate to room temperature for approx 10 min. 75 μl CellTiter-Glo reagent was added to each well that was then covered (Perkin Elmer Topseal) and shaken on plate shaker for 10 min. Luminescence was measured on a HTS Topcount (Perkin Elmer). Within an experiment, the results for each treatment were the mean of 2 replicate wells. For initial screening purposes, compounds were tested using a 9 point dilution curve (serial 1:3 dilutions). For each experiment, controls (containing no drug) and a blank incubation (containing cells read at the time of compound addition) were run in parallel. The blank value was subtracted from all control and sample values. For each sample, the mean value for cell growth (in relative light units) was expressed as a percentage of the mean value for cell growth of the control.

Compound	IC50 [nM]
COCCCc1cc2c(cc1Nc1nccc(-c3cc(C#N)c4c(c3)[C@@](C)(CO)CN4)n1)CCN(C)CC2 [Compound 20]	372
CC1(CO)CNc2c(C#N)cc(-c3ccnc(Nc4cc(Cl)cc5c4ccn5CCCN4CCOCC4)n3)cc21 (stereo not drawn) [Compound 5c]	23
CC(=O)N1CCc2c(C)c(Nc3nccc(-c4cc(C#N)c5c(c4)C(C)(CO)CN5)n3)cc(Cl)c21 (stereo not drawn) [Compound 9]	25
CC1(CO)CNc2c(C#N)cc(-c3ccnc(Nc4cc(Cl)cc5c4CCN5)n3)cc21 (stereo not drawn) [Compound 10]	42
CC1(CO)CNc2c(C#N)cc(-c3ccnc(Nc4cc(Cl)cc5c4ccn5CCN4CCOCC4)n3)cc21 (stereo not drawn) [Compound 4c]	9
CC1(CO)CNc2c(C#N)cc(-c3ccnc(Nc4cc(Cl)cc5c4OCCC5)n3)cc21 (stereo not drawn) [Compound 4]	107
CN(C)C(=O)C1COc2c(cc(Cl)cc2Nc2nccc(-c3cc(C#N)c4c(c3)[C@@](C)(CO)CN4)n2)C1 (stereo partly drawn) [Compound 11]	36
CC1(CO)CNc2c(C#N)cc(-c3ccnc(Nc4ccc5c(c4)CCCO5)n3)cc21 (stereo not drawn) [Compound 1]	96
CC1OCCn2nc(Nc3nccc(-c4cc(C#N)c5c(c4)C(C)(CO)CN5)n3)cc21 (stereo not drawn) [Compound 6b]	398
Cn1nc2c(c1Nc1nccc(-c3cc(C#N)c4c(c3)C(C)(CO)CN4)n1)CCC2 (stereo not drawn) [Compound 4b]	1900
CC1(CO)CNc2c(C#N)cc(-c3ccnc(Nc4cnc5c(c4)COCC5)n3)cc21 (stereo not drawn) [Compound 45]	~60

Next, values leading:

IC50 [nM]	Compound
85	CC1(C)CNc2c(C#N)cc(-c3ccnc(Nc4cc(F)cc5[nH]ccc45)n3)cc21 [Compound 8c]
16	CNC(=O)CCn1ccc2c(Nc3nccc(-c4cc(C#N)c5c(c4)C(C)(CO)CN5)n3)cc(Cl)cc21 (stereo not drawn) [Compound 11c]
1700	CC1(CO)CNc2c(C#N)cc(-c3ccnc(Nc4cc5n(n4)CCOC5)n3)cc21 (stereo not drawn) [Compound 7b]
1020	CC1(C)Cn2nc(Nc3nccc(-c4cc(C#N)c5c(c4)C(C)(CO)CN5)n3)cc2CO1 (stereo not drawn) [Compound 10b]
1580	COCCn1nc2c(c1Nc1nccc(-c3cc(C#N)c4c(c3)[C@@](C)(CO)CN4)n1)CCC2 [Compound 11b]
63	COCCn1ccc2cc(Nc3nccc(-c4cc(C#N)c5c(c4)[C@@](C)(CO)CN5)n3)c(OC)nc21 [Compound 14c]

Same assay, conditions: JJN-3 (NIK translocated) cells, 96 hr treatment, averaged values, read-out: JJN-3 Proliferation inhibition (IC50 (nM))

IC50 [nM]	Compound
41	CC1(CO)CNc2c(C#N)cc(-c3ccnc(Nc4ccc5c(c4)CC(CO)OC5)n3)cc21 (single isomer, unassigned) [Compound 8]
5	CN(C)C1COc2c(cc(Cl)cc2Nc2nccc(-c3cc(C#N)c4c(c3)[C@@](C)(CO)CN4)n2)C1 (stereo partly drawn) [Compound 17]

These molecules were tested on KMS12-BM cells (assay: Antiproliferative activity on KMS12-BM (NIK WT) multiple myeloma cells (CellTiter-Glo)). Settings: 96 hr treatment, averaged values, read-out: KMS-12 Proliferation inhibition (IC50 (nM)).
Assay type: cell-based, human
Protocol: as §1, §2

IC50 [nM]	Compound
162	CC1(CO)CNc2c(C#N)cc(-c3ccnc(Nc4ccc5c(c4)CC(CO)OC5)n3)cc21 (single isomer, unassigned) [Compound 8]
182	CN(C)C1COc2c(cc(Cl)cc2Nc2nccc(-c3cc(C#N)c4c(c3)[C@@](C)(CO)CN4)n2)C1 (stereo partly drawn) [Compound 17]
1180	CN(C)C(=O)C1COc2c(cc(Cl)cc2Nc2nccc(-c3cc(C#N)c4c(c3)[C@@](C)(CO)CN4)n2)C1 (stereo partly drawn) [Compound 11]

Same assay, conditions: Homo sapiens, KMS-12-BM, 96 h, 96 hr treatment, averaged values, read-out: KMS-12 Proliferation inhibition (IC50 (nM))

Compound	IC50 [nM]
COCCCc1cc2c(cc1Nc1nccc(-c3cc(C#N)c4c(c3)[C@@](C)(CO)CN4)n1)CCN(C)CC2 [Compound 20]	1480
CC1(CO)CNc2c(C#N)cc(-c3ccnc(Nc4cc(Cl)cc5c4ccn5CCCN4CCOCC4)n3)cc21 (stereo not drawn) [Compound 5c]	~692
CC(=O)N1CCc2c(C)c(Nc3nccc(-c4cc(C#N)c5c(c4)C(C)(CO)CN5)n3)cc(Cl)c21 (stereo not drawn) [Compound 9]	~2750
CC1(CO)CNc2c(C#N)cc(-c3ccnc(Nc4cc(Cl)cc5c4CCN5)n3)cc21 (stereo not drawn) [Compound 10]	~5750
CC1(CO)CNc2c(C#N)cc(-c3ccnc(Nc4cc(Cl)cc5c4ccn5CCN4CCOCC4)n3)cc21 (stereo not drawn) [Compound 4c]	~1020
CC1(CO)CNc2c(C#N)cc(-c3ccnc(Nc4cc(Cl)cc5c4OCCC5)n3)cc21 (stereo not drawn) [Compound 4]	> 10000
CC1(CO)CNc2c(C#N)cc(-c3ccnc(Nc4ccc5c(c4)CCCO5)n3)cc21 (stereo not drawn) [Compound 1]	550
CC1OCCn2nc(Nc3nccc(-c4cc(C#N)c5c(c4)C(C)(CO)CN5)n3)cc21 (stereo not drawn) [Compound 6b]	~851
Cn1nc2c(c1Nc1nccc(-c3cc(C#N)c4c(c3)C(C)(CO)CN4)n1)CCC2 (stereo not drawn) [Compound 4b]	~6460
CC1(CO)CNc2c(C#N)cc(-c3ccnc(Nc4cnc5c(c4)COCC5)n3)cc21 (stereo not drawn) [Compound 45]	~186

Second part, the molecule after the results:

IC50 [nM]	Compound
> 10000	CC1(C)CNc2c(C#N)cc(-c3ccnc(Nc4cc(F)cc5[nH]ccc45)n3)cc21 [Compound 8c]
427	CNC(=O)CCn1ccc2c(Nc3nccc(-c4cc(C#N)c5c(c4)C(C)(CO)CN5)n3)cc(Cl)cc21 (stereo not drawn) [Compound 11c]
6310	CC1(CO)CNc2c(C#N)cc(-c3ccnc(Nc4cc5n(n4)CCOC5)n3)cc21 (stereo not drawn) [Compound 7b]
2400	CC1(C)Cn2nc(Nc3nccc(-c4cc(C#N)c5c(c4)C(C)(CO)CN5)n3)cc2CO1 (stereo not drawn) [Compound 10b]
~1820	COCCn1nc2c(c1Nc1nccc(-c3cc(C#N)c4c(c3)[C@@](C)(CO)CN4)n1)CCC2 [Compound 11b]
> 10000	COCCn1ccc2cc(Nc3nccc(-c4cc(C#N)c5c(c4)[C@@](C)(CO)CN5)n3)c(OC)nc21 [Compound 14c]
